Results: PMC11754779, “Mechanism of sensor kinase CitA transmembrane signaling” (Nature Communications, 2025)
One block for each compound: values may come before it.

How the values were obtained:
[1] = molecular target: T1, CitApc (C12A/R93A CitA1-309) (Geobacillus thermodenitrificans, UniProt A4IPE6, C12A/R93A); assay: 1H-detected MAS solid-state NMR chemical shifts; assay type: binding; conditions: 5 mM sodium citrate, 20 mM sodium phosphate pH 6.5; DMPC/DMPA liposomes; 293 K
T1 construct: gene GTNG_1840; residues 1-309 (PASp, TM helices, PASc; no kinase core); E. coli C43(DE3), Ni-NTA purified; reconstituted in DMPC/DMPA liposomes; dimer
T1 sequence (A4IPE6 entry or part of it C12A/R93A): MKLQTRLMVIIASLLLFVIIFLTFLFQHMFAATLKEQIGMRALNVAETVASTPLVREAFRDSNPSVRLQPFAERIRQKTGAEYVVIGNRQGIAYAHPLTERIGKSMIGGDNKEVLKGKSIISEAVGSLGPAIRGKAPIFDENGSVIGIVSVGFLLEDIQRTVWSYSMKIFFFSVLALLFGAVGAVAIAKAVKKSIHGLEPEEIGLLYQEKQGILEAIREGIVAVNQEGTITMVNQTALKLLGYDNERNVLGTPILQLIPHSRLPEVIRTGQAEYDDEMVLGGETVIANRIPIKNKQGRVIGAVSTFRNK

Gt CitA PASp domain (WT) = molecular target: T2, Gt CitA PASp domain (WT) (Geobacillus thermodenitrificans, UniProt A4IPE6); assay: X-ray crystallography, molecular replacement; assay type: binding; conditions: 1 mM sodium citrate added; crystallised from 1 M tri-sodium citrate, 0.1 M imidazole pH 9.0
T2 construct: gene GTNG_1840; periplasmic (extracytoplasmic) PAS/PDC sensor domain; E. coli BL21(DE3); N-terminal His-tag removed with TEV protease
T2 sequence (A4IPE6 entry or part of it): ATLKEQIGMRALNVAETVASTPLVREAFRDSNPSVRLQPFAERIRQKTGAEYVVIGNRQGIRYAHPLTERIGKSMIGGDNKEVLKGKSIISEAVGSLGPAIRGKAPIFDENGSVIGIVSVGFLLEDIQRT

full length Gt CitA = molecular target: T3, full length Gt CitA (Geobacillus thermodenitrificans, UniProt A4IPE6, C12A/R93A/N308C, form not given); assay: […] NMR ATP hydrolysis assay in DMPC liposomes; assay type: biochemical; conditions: 5 mM sodium citrate; 6 mM ATP, 10 mM MgCl2, pH 6.5, 37 C; untagged and CH2COCF3-tagged at N308C; activator
T3 construct: gene GTNG_1840; full length; vector pET16b, Ni-NTA purified, reconstituted in DMPC liposomes (C12A/R93A/N308C); pMW1652 in E. coli IMW549 for reporter assay
T3 sequence (A4IPE6 entry or part of it C12A/R93A/N308C, form open): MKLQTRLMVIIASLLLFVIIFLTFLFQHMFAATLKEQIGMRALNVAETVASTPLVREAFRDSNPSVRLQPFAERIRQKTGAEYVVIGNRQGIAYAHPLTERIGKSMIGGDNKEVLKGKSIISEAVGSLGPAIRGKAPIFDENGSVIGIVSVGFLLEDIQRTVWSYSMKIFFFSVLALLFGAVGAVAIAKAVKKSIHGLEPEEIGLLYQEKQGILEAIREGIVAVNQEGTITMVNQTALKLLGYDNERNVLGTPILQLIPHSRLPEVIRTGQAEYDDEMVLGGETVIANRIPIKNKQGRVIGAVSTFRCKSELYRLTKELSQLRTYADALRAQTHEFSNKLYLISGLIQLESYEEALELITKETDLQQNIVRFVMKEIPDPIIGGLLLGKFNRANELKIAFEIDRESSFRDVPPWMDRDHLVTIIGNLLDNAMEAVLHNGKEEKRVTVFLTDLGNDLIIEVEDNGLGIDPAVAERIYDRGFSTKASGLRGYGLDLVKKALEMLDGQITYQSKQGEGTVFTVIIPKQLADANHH

[2] = molecular target: T4, CitApc (C12A/R93A CitA1-309) (Geobacillus thermodenitrificans, UniProt A4IPE6, C12A/R93A/N308C); assay: […] CODEX with DNP, inter-dimer distance change; assay type: binding; conditions: CH2COCF3-tagged at N308C; liposomes; 90 K
T4 construct: gene GTNG_1840; residues 1-309 (PASp, TM helices, PASc; no kinase core); E. coli C43(DE3), Ni-NTA purified; reconstituted in DMPC/DMPA liposomes; dimer
T4 sequence (A4IPE6 entry or part of it C12A/R93A/N308C): as the sequence (A4IPE6 entry or part of it C12A/R93A) above, with N308C counted along it

[3] = molecular target: wild-type cytosolic PAS domain (PASc) of Geobacillus thermodenitrificans CitA (Geobacillus thermodenitrificans); assay: SEC; size exclusion column, down to a concentration of 1 μM (Supplementary Fig. 8)
[4] = molecular target: N288D mutant of the cytosolic PAS domain (PASc) of Geobacillus thermodenitrificans CitA (Geobacillus thermodenitrificans); assay: as above

Compound: O=C(O)CC(O)(CC(=O)O)C(=O)O [citrate]
1H-detected MAS solid-state NMR chemical shifts [1]: also indicate changes in secondary structure upon addition of citrate | X-ray crystallography, molecular replacement (Gt CitA PASp domain (WT)): Superposition of the citrate-bound Gt PASp domain structure (PDB: 8BGB | 31P NMR ATP hydrolysis assay in DMPC liposomes (full length Gt CitA): Upon citrate binding, a threefold increase in CitA’s ATP hydrolysis rate was observed | 19F CODEX with DNP, inter-dimer distance change [2]: A decay in the CODEX signal to half of the reference signal was observed when citrate was bound

stoichiometry N [3]: 2
Compound: wild-type cytosolic PAS domain (PASc) of Geobacillus thermodenitrificans CitA (domain or fragment)

stoichiometry N [4]: 2
Compound: N288D mutant of the cytosolic PAS domain (PASc) of Geobacillus thermodenitrificans CitA (domain or fragment)
